Measured values reported in patent publication US12478601B2, “Dietary product devoid of at least two non essential amino acids” (CANCER RESEARCH TECHNOLOGY LIMITED, priority 2016, dated 2025).
“Also recorded” adds a separate entry of the source. Where a name gives a salt, the structure may show the parent alone. Read-outs that look alike come from different tables or passages of the source.

Columns and labels:
[1] = system: Colorectal and breast cancer cell lines; test: Rescue from cysteine starvation by homocysteine supplementation; assay type: cell-based; details: homocysteine 0.2 mM & 0.8 mM, three days
Protocol: FIG. 39. […] Colorectal and breast cancer cell lines were grown in 24-well plates. Basal medium was formulated (based on RPMI medium) lacking cysteine but containing all 19 other essential and non-essential amino acids. This basal medium was supplemented with the stated components; cysteine 0.4 mM (+Cys), homocysteine 0.2 mM & 0.8 mM (HC) and grown for three days. Data are average of three wells. Error bars=STDEV.
Cells (4×10^4-1×10^5) were seeded in complete RPMI or DMEM medium in 24-well plates and allowed to adhere overnight. Cells were then washed with PBS and received assay medium supplemented with the stated amino acids/metabolites/drugs. Assay medium was formulated based on RPMI-1640 medium but lacking amino acids, which were added individually depending on the assay. Assay medium was also supplemented with additional vitamin B6 (20 uM), a co-factor for cysteine synthesis. Cells were counted (using Casy TT cell counter, Innovatis, Roche Applied Science) at the stated time-points, using a “time=0” plate to calculate relative cell number from time of medium change.

[2] = system: lymphoma (based on Eμ-Myc expression)
Text: (§1) On normal chow, dietary amino acids are derived from whole proteins contained in the raw ingredients (wheat, wheatfeed, barley, de-hulled extracted toasted soya, maize and fish meal), with a small amount of purified lysine added as a supplement. […] “Diet 2-Control” contained all essential amino acids plus serine, glycine, glutamine, arginine, cystine, tyrosine, alanine, proline, glutamate and asparagine; “Diet 2-No Ser, No Gly/Diet 2-SG-free” was the same as Diet 2-Control, but without serine and glycine, with the other amino acid levels increased proportionally to achieve the same total amino acid content. “Diet 2” formulations were used for the Eμ-Myc-Tigar^−/− cohort (FIG. 19, panel f). All other cohorts received the previously published “Diet 1” formulations.
Mus Musculus cohorts were housed in a barriered facility proactive in environmental enrichment. The Eμ-Myc11, ApcMin/+, Lgr5creER; Apcf1/f1 and Pdx1cre; KrasG12D; Trp53f1/+ or Trp53R172H/+ mice/models have been previously described. Mixed male and female populations were used for each genotype. […] Eμ-Myc, and ApcMin/+ mice were at least 20 generations C57BL/6J. Eμ-Myc; Tigarf1/f1 mice were at least 50% C57BL/6J. Mice were put on the appropriate diet at the following times: Eμ-Myc pure bred 60 days post-natal, Eμ-Myc; Tigarf1/f1 55 days post-natal, ApcMin/+80 days post-natal, Lgr5creER; Apcf1/f1 7 days post-induction, Pdx1cre; KrasG12D; Trp53f1/+ or Trp53R172H/+60 days post-natal. […] For the metformin experiment, ApcMin/+ mice were given 200 mg/kg/day in their drinking water, starting 4 days after the diet change. All mice were taken to clinical end-point. […]
Samples were prepared in cold (−20° C.) lysis solvent (LS) consisting of methanol, acetonitrile, and H2O (50:30:20). […] Extracts were analysed on an LCMS platform consisting of an Accela 600 LC system and an Exactive mass spectrometer (Thermo Scientific). […] The raw data was analysed by LCquan (Thermo Scientific) and MZMine 2.10 for metabolite identification and quantification. […]

[3] = system: HCT116, DLD1 and SW480; test: Synergy score screen: chemotherapeutic agents in low serine, glycine, cysteine medium, cell counts
Protocol: Human cell lines HCT116, DLD1 and SW480 were seeded into 96-well plates either in complete medium containing serine, glycine and cysteine at 100 uM, with all other amino acids present, or low serine, glycine, cysteine (17-23 uM) medium with all other amino acids present. After 6 hours the stated chemotherapeutic agents were added (at doses of 0.01, 0.1 and 1 uM) to the wells and cells were incubated for a further 48 hours. After this time cells were formalin fixed and stained with a fluorescent nuclear stain for cell counting on an automated (Operetta) plate reader.

[4] = system: intestinal tumour organoids derived from a VillincreER; APCfl/fl mouse; test: Intestinal tumour organoid growth (diameter) +/− serine and glycine, +/− drug; assay type: cell-based; details: two days
Protocol: ADF=Advanced DMEM F/12, with 2 mM glutamine, 1% of penicillin/streptomycin solution, 0.1% of AlbuMAX I BSA, 10 mM HEPES (all Gibco/Life Technologies). Adenomas were removed from the small intestine of mice and cut into smaller pieces and washed 5 times with ice cold PBS. Pieces were incubated in 5 mM EDTA for 10 min at 4° C. on a roller. Crypts were washed 2 times with ice cold PBS to remove EDTA and incubated in 10× trypsin for 30 min at 37° C. The crypt-enriched supernatant was collected and washed approximately 5 times with 5 ml ADF through mechanical pipetting. Crypts were pelleted via centrifugation at 1,200 rpm for 5 min. Crypts were re-suspended in growth factor reduced matrigel (BD Biosciences) and 20 μl was plated per well in a 12-well plate. Matrigel was allowed to solidify for 30 min in a 37° C. incubator before appropriate ADF was added supplemented with 0.05 μg/ml EGF and 0.1 μg/ml noggin (Total volume per well 1 ml). Crypts were split by harvesting in ice cold PBS and spun down at 600 rpm for 3 min. Supernatant was aspirated and the pellet dissociated with 100 μl ice cold PBS using mechanical pipetting. 5 ml of PBS was added to tube and spun own at 600 rpm for 3 min, repeated until supernatant was clear of debris. The final crypt pellet was re-suspended with growth factor reduced matrigel and plated as before. For serine/glycine starvation, amino acid free Advanced DMEM F/12 (Gibco/Life Technologies) was used to construct assay medium for organoids with or without serine and glycine, containing all other amino acids. […]
Organoids were seeded in the stated media with or without metformin/daunorubicin (both from Sigma) and allowed to grow for two days. Images for size quantification (performed using ImageJ software) were taken using a light microscope then organoids were fixed in 4% paraformaldehyde. ROS damage was assessed by immunostaining organoids with Anti-malondialdehyde (MDA) (Abcam, ab6463), with Alexa Fluor 594 secondary antibody (Thermo Fisher Scientific). […]

[5] = system: VillincreER; APCfl/fl organoids; test: Organoid malondialdehyde (MDA) immunostaining (ROS damage); assay type: cell-based, mouse
Protocol: Organoids were seeded in the stated media with or without metformin/daunorubicin (both from Sigma) and allowed to grow for two days. Images for size quantification (performed using ImageJ software) were taken using a light microscope then organoids were fixed in 4% paraformaldehyde. ROS damage was assessed by immunostaining organoids with Anti-malondialdehyde (MDA) (Abcam, ab6463), with Alexa Fluor 594 secondary antibody (Thermo Fisher Scientific). Images were captured on an Olympus FV1000 inverted laser scanning confocal microscope and MDA staining was quantified using ImageJ software.

[6] = system: DLD1 and SW480 cells; test: Metformin in vitro assay in APC-truncated colorectal cell lines, cell number; assay type: cell-based, Human; details: three days
Protocol: DLD1 and SW480 cells were seeded into 24-well plates and allowed to adhere overnight. Cells were washed with PBS and received either assay medium with or without serine and glycine, with or without metformin at the stated doses and allowed to grow for three days. Representative wells were photographed using a light microscope and counted using a Casy TT cell counter (FIG. 19, panel d). For the dose-response experiment (FIG. 23, panel e) cells were seeded in the same way, either in assay medium without serine and glycine, or in assay medium with low serine and glycine (10 uM), triplicate wells were counted after three days.

[7] = system: intestinal tumours (APCMin/+)
Text: as §1
Mus Musculus cohorts were housed in a barriered facility proactive in environmental enrichment. The Eμ-Myc11, ApcMin/+, Lgr5creER; Apcf1/f1 and Pdx1cre; KrasG12D; Trp53f1/+ or Trp53R172H/+ mice/models have been previously described. Mixed male and female populations were used for each genotype. […] Eμ-Myc, and ApcMin/+ mice were at least 20 generations C57BL/6J. Eμ-Myc; Tigarf1/f1 mice were at least 50% C57BL/6J. Mice were put on the appropriate diet at the following times: Eμ-Myc pure bred 60 days post-natal, Eμ-Myc; Tigarf1/f1 55 days post-natal, ApcMin/+80 days post-natal, Lgr5creER; Apcf1/f1 7 days post-induction, Pdx1cre; KrasG12D; Trp53f1/+ or Trp53R172H/+60 days post-natal. […] For the metformin experiment, ApcMin/+ mice were given 200 mg/kg/day in their drinking water, starting 4 days after the diet change. All mice were taken to clinical end-point. Intestines from ApcMin/+ mice were fixed in methacarn (4:2:1 ratio of methanol, chloroform, acetic acid) to facilitate scoring of tumour number and area (width×length).
Samples were prepared in cold (−20° C.) lysis solvent (LS) consisting of methanol, acetonitrile, and H2O (50:30:20). […] Tissue samples were snap frozen and stored at −80° C. Prior to lysis, frozen samples were weighed then homogenized in 1 ml cold LS using a Precellys homogeniser (Bertin Technologies). Lysates were cleared of protein by centrifugation and lysate concentrations were normalized post-homogenisation with LS based on weight. Extracts were analysed on an LCMS platform consisting of an Accela 600 LC system and an Exactive mass spectrometer (Thermo Scientific). A SeQuant ZIC-pHILIC column (2.1 mm×150 mm, 5 μm) (Merck) was used to separate the metabolites with the mobile phase mixed by A=Ammonium carbonate 20 mM (adjusted to pH 9.4) and B=Acetonitrile. A gradient program starting at 20% of A and after 2 mins linearly increasing to 80% at 17 min was used followed by washing and re-equilibration steps. The total run time of the method was 25 min. The LC stream was desolvated and ionised in the HESI probe. The Exactive mass spectrometer was operated in full scan mode over a mass range of 75-1,000 m/z at a resolution of 50,000 with polarity switching. The raw data was analysed by LCquan (Thermo Scientific) and MZMine 2.10 for metabolite identification and quantification.
Mus Musculus cohorts were housed in a barrier facility proactive in environmental enrichment. […] Mixed male and female populations were used for each genotype.

[8] = average synergy score for three colorectal cells lines, drug at 0.01, 0.1 and 1 uM for 48 hours, low serine, glycine, cysteine (17-23 uM) vs complete medium (100 uM)

Compound: N[C@@H](CCS)C(=O)O [homocysteine]
- rescue from cysteine starvation [1]: rescued from cysteine starvation; also recorded: significant rescue from cysteine starvation

Compound: [H]/N=C(/N)N/C(=N/[H])NCCc1ccccc1 [phenformin]
- tolerability ([2]; 100 mg/kg/day by gavage, mice on normal diet): tolerated
- mice already recruited that did not succumb to toxicity ([2]; 100 mg/kg/day with serine and glycine deficient diet): 7/14
- survival, diet with phenformin compared to serine and glycine free diet alone ([2]; 100 mg/kg/day, not statistically significant): trend for improved survival

Compound: COc1cccc2c1C(=O)c1c(O)c3c(c(O)c1C2=O)C[C@@](O)(C(=O)CO)C[C@@H]3O[C@H]1C[C@H](N)[C@H](O)[C@H](C)O1 [Doxorubicin hydrochloride]
- SYNERGY SCORE [3, 8]: 1.76

Compound: Cc1cc(Nc2ncc(Cl)c(Nc3ccccc3S(=O)(=O)C(C)C)n2)c(OC(C)C)cc1C1CCNCC1 [Ceritinib]
- SYNERGY SCORE [3, 8]: 2.56

Compound: CC(C)(C#N)c1cc(Cn2cncn2)cc(C(C)(C)C#N)c1 [Anastrozole]
- SYNERGY SCORE [3]: 1.43

Compound: CNC(=O)c1cc(Oc2ccc(NC(=O)Nc3ccc(Cl)c(C(F)(F)F)c3)cc2)ccn1 [Sorafenib]
- SYNERGY SCORE [3, 8]: 2.26

Compound: C=C1C[C@@H]2[C@H](CC[C@]3(C)C(=O)CC[C@@H]23)[C@@]2(C)C=CC(=O)C=C12 [Exemestane]
- SYNERGY SCORE [3, 8]: 2.14

Compound: CO[C@H]1C[C@@H]2CC[C@@H](C)[C@@](O)(O2)C(=O)C(=O)N2CCCC[C@H]2C(=O)O[C@H]([C@H](C)C[C@@H]2CC[C@@H](OCCO)[C@H](OC)C2)CC(=O)[C@H](C)/C=C(\C)[C@@H](O)[C@@H](OC)C(=O)[C@H](C)C[C@H](C)/C=C/C=C/C=C/1C [Everolimus]
- SYNERGY SCORE [3, 8]: 3.33

Compound: COc1cccc2c1C(=O)c1c(O)c3c(c(O)c1C2=O)C[C@@](O)(C(C)=O)C[C@@H]3O[C@H]1C[C@H](N)[C@H](O)[C@H](C)O1 [Daunorubicin]
- tumour organoid growth ([4]; with serine & glycine starvation): complements serine and glycine starvation; also recorded: decrease tumour organoid growth
- reactive oxygen species levels in tumour-organoids ([5]; with serine & glycine starvation, two days): increase reactive oxygen species levels

Compound: N.N.[Cl][Pt][Cl] [Cisplatin]
- SYNERGY SCORE [3, 8]: 1.79

Compound: COc1cc2nccc(Oc3ccc(NC(=O)C4(C(=O)Nc5ccc(F)cc5)CC4)cc3)c2cc1OC [Cabozantinib]
- SYNERGY SCORE [3, 8]: 4.51

Compound: C/C=C1\NC(=O)[C@H]2CSSCC/C=C/[C@H](CC(=O)N[C@H](C(C)C)C(=O)N2)OC(=O)[C@H](C(C)C)NC1=O [Romidepsin]
- SYNERGY SCORE [3]: 2.03

Compound: COc1cc(Nc2c(C#N)cnc3cc(OCCCN4CCN(C)CC4)c(OC)cc23)c(Cl)cc1Cl [Bosutinib]
- SYNERGY SCORE [3, 8]: 1.95

Compound: Nc1nc(F)nc2c1ncn2[C@@H]1O[C@H](COP(=O)(O)O)[C@@H](O)[C@@H]1O [Fludarabine phosphate]
- SYNERGY SCORE [3]: 2.76

Compound: CN(C)C(=N)N=C(N)N [Metformin]
- organoid growth, interaction with serine and glycine starvation ([4]; low dose metformin): antagonizes serine and glycine starvation; also recorded: did not have a synergistic effect
- organoid growth, interaction with serine starvation ([4]; metformin 1000 uM): synergise with serine starvation
- reactive oxygen species (ROS) levels ([5]; high dose metformin): increase with high dose metformin
- reactive oxygen species (ROS) levels ([5]; low dose metformin): decrease with low dose metformin
- cell number ([6]; metformin at 20 µM): trend for increased cell number
- synergistic effect with serine/glycine starvation ([6]; metformin at concentrations found in vivo): did not have a synergistic effect
- metformin levels in serum and tissue ([7]; 200 mg/kg/day in drinking water, LCMS): relatively low; also recorded: too low to potentiate the anti-cancer effect
- average tumour area ([7]; metformin 200 mg/kg/day): without a substantial change in average tumour area
- impact on systemic metabolism (serum glucose and lactate) ([7]; metformin 200 mg/kg/day): minimal impact on systemic metabolism; also recorded: little impact on systemic metabolism
- SYNERGY SCORE [3, 8]: 7.53

Compound: O=C(CCCCCCC(=O)Nc1ccccc1)NO [Vorinostat]
- SYNERGY SCORE [3, 8]: 4.94

Compound: CNC(=O)c1cc(Oc2ccc(NC(=O)Nc3ccc(Cl)c(C(F)(F)F)c3)c(F)c2)ccn1 [Regorafenib]
- SYNERGY SCORE [3, 8]: 2.29

Compound: CN(C)C/C=C/C(=O)Nc1cc2c(Nc3ccc(F)c(Cl)c3)ncnc2cc1O[C@H]1CCOC1 [Afatinib]
- SYNERGY SCORE [3, 8]: 1.18

Compound: COc1cccc2c1C(=O)c1c(O)c3c(c(O)c1C2=O)C[C@@](O)(C(=O)CO)C[C@@H]3O[C@H]1C[C@H](N)[C@@H](O)[C@H](C)O1 [Epirubicin hydrochloride]
- SYNERGY SCORE [3, 8]: 1.40

Compound: Cc1ccc(C(=O)Nc2ccc(CN3CCN(C)CC3)c(C(F)(F)F)c2)cc1C#Cc1cnc2cccnn12 [Ponatinib]
- SYNERGY SCORE [3]: 1.00

Compound: CC[C@H](Nc1ncnc2[nH]cnc12)c1nc2cccc(F)c2c(=O)n1-c1ccccc1 [Idelalisib]
- SYNERGY SCORE [3, 8]: 4.05

Compound: CS(=O)(=O)c1ccc(C(=O)Nc2ccc(Cl)c(-c3ccccn3)c2)c(Cl)c1 [Vismodegib]
- SYNERGY SCORE [3]: 1.53

Compound: CC(C)C[C@H](NC(=O)[C@H](CCc1ccccc1)NC(=O)CN1CCOCC1)C(=O)N[C@@H](Cc1ccccc1)C(=O)N[C@@H](CC(C)C)C(=O)[C@@]1(C)CO1 [Carfilzomib]
- SYNERGY SCORE [3, 8]: 1.65

Compound: CO[C@H]1C[C@@H]2CC[C@@H](C)[C@@](O)(O2)C(=O)C(=O)N2CCCC[C@H]2C(=O)O[C@H]([C@H](C)C[C@@H]2CC[C@@H](OC(=O)C(C)(CO)CO)[C@H](OC)C2)CC(=O)[C@H](C)/C=C(\C)[C@@H](O)[C@@H](OC)C(=O)[C@H](C)C[C@H](C)/C=C/C=C/C=C/1C [Temsirolimus]
- SYNERGY SCORE [3, 8]: 3.90

Compound: O=C(c1cc(Cc2n[nH]c(=O)c3ccccc23)ccc1F)N1CCN(C(=O)C2CC2)CC1 [Olaparib]
- SYNERGY SCORE [3, 8]: 1.46

Compound: Arsenic trioxide
- SYNERGY SCORE [3]: 2.52

Compound: Nc1cccc2c1CN(C1CCC(=O)NC1=O)C2=O (stereo not drawn) [Lenalidomide]
- SYNERGY SCORE [3, 8]: 1.94
